Results published in ChEMBL document CHEMBL1201862, “PubChem BioAssay data set” (2004).
Active and inactive are the calls of the source.

Columns and labels:
[1] = biological target: T1, Lytic switch protein BZLF1 (Epstein-Barr virus (strain B95-8) (HHV-4) (Human herpesvirus 4), UniProt P03206); assay: inhibition of BZLF1 ZTA DNA binding – biochemical, fluorescence polarization, Epstein-Barr virus, 1536-well, counter-screen for EBNA-1 inhibitor project, dose response (AID 2377); parameters: species or system human gammaherpesvirus 4;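 also: fluorescence polarization of Cy5-labelled ZRE DNA probe bound by purified Zta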
T1 sequence (P03206 whole entry): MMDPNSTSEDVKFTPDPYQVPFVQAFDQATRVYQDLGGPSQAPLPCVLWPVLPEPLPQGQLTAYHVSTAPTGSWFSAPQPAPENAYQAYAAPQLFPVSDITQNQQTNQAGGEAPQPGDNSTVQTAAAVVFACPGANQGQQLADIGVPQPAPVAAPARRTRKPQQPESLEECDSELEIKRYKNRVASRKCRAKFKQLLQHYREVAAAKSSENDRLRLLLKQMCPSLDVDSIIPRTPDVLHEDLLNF

[2] = biological target: T2, Epstein-Barr nuclear antigen 1 (Epstein-Barr virus (strain B95-8) (HHV-4) (Human herpesvirus 4), UniProt P03211); assay: inhibition of EBV nuclear antigen 1 DNA binding – biochemical, fluorescence polarization, 1536-well, dose response (AID 2381); parameters: species or system human gammaherpesvirus 4;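 also: fluorescence polarization of a Cy5 DNA probe bound by EBNA-1 protein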
T2 sequence (P03211 whole entry): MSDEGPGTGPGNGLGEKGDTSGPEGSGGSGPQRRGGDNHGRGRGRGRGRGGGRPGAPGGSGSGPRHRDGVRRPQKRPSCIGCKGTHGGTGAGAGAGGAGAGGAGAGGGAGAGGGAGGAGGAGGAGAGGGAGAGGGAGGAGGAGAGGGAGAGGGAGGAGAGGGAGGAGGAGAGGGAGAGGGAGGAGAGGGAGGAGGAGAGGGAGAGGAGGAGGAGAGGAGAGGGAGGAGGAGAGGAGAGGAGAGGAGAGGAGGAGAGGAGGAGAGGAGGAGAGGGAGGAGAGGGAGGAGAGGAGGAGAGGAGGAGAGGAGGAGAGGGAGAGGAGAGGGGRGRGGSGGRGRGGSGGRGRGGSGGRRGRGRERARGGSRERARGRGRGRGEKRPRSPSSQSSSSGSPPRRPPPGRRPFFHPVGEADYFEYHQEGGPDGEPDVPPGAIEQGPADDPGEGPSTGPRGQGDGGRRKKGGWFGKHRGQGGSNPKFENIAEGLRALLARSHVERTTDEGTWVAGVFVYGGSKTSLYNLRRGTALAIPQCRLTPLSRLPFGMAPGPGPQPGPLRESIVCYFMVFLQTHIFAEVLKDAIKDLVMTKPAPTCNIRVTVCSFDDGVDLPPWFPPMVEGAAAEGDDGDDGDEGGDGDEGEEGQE

[3] = fluconazole-exposed Candida albicans growth modulators – fluorescence, retest, confirmation (AID 2467); assay type: functional, cell-based
[4] = NIH-3T3 fibroblast cytotoxicity, dose response, cytotoxicity control, cell-based, fluorescence, Alamar Blue, secondary assay (AID 2327); assay type: functional;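 also: NIH-3T3 mouse fibroblasts cultured with fluconazole at 8 µg/mL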
[5] = biological target: T3, Tyrosine-protein phosphatase non-receptor type 7 (Homo sapiens, UniProt P35236); assay: HePTP tyrosine phosphatase activity blockers – biochemical, absorbance, leukemia target, primary screen (AID 521); assay type: functional
T3 sequence (P35236 whole entry): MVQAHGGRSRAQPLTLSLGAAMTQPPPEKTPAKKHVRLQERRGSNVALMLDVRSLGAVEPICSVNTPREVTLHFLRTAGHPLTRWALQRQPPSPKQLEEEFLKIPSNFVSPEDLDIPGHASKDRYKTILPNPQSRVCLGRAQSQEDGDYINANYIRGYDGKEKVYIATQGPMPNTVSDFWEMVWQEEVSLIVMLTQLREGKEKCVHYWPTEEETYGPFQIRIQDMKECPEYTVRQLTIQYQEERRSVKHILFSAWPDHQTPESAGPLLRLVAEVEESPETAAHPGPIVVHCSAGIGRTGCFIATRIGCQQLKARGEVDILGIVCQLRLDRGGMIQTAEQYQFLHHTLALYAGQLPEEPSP

Bcl-2-related protein A1 [6] = biological target: T4, Bcl-2-related protein A1 (Mus musculus, UniProt Q07440); assay: small-molecule antagonists of Bfl-1/BH3 interaction – biochemical, TR-FRET, mouse Bfl-1, confirmation (AID 621);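 also: TR-FRET binding of GST-Bfl-1 to FITC-labelled Bid peptide via terbium antibody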
T4 sequence (Q07440 whole entry): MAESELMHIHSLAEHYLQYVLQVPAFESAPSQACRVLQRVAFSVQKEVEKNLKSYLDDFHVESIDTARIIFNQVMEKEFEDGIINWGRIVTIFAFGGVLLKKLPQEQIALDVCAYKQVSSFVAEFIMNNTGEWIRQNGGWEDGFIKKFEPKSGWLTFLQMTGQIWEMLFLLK

[7] = biological target: Glyceraldehyde-3-phosphate dehydrogenase (Homo sapiens, UniProt P04406)
Bcl-2-related protein A1 [8] = biological target: T4, Bcl-2-related protein A1; assay: Bfl-1 binding inhibitors, SAR follow-up, biochemical, fluorescence polarization (AID 1070)
[9] = growth inhibition of yeast DHODH-expressing 3D7 parasites – SYBR Green, dry powder samples, dose response (AID 1159570); assay type: functional, cell-based;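 also: parasite growth measured after 72 hours of compound exposure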
[10] = Dd2 malaria parasite growth inhibition potency – SYBR Green, dry powder samples, dose response (AID 1159566); assay type: functional, cell-based;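 also: potency for growth inhibition with lower SYBR green DNA signal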
[11] = growth inhibition of PfATP4-mutant resistant parasites – NITD609-resistant line, SYBR Green, dry powder, dose response (AID 1159571); assay type: functional, cell-based;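 also: parasites synchronized at ring stage by sorbitol before testing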
[12] = P. falciparum Dd2 growth inhibitors, dose response, SYBR Green, cherry-picked samples (AID 1159567); assay type: functional, cell-based
[13] = Trypanosoma cruzi growth suppression in host cells – NIH3T3 host cells, beta-gal luminescence, confirmation (AID 2044); assay type: functional, cell-based;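 also: intracellular parasites grown in NIH/3T3 mouse fibroblasts as host cells; luminescent beta-galactosidase reporter signal from transgenic T. cruzi replicating inside host cells; inhibitors lower the luminescence signal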
[14] = NIH3T3 cell viability loss – ATP luminescence, mouse fibroblasts, counter-screen, dose response (AID 2010); assay type: functional, cell-based;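 also: cells exposed to compound for about 90 hours before reading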
Protein Tat = biological target: T5, Protein Tat (Human immunodeficiency virus type 1 group M subtype B (isolate HXB2)(HIV-1), UniProt P04608); assay type: functional;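 also: tat binding to TAR RNA read out by fluorescence polarization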
T5 sequence (P04608 whole entry): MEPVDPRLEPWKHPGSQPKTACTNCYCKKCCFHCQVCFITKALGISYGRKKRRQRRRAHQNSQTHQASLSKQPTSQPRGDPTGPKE

Sequence of Glyceraldehyde-3-phosphate dehydrogenase (P04406 whole entry): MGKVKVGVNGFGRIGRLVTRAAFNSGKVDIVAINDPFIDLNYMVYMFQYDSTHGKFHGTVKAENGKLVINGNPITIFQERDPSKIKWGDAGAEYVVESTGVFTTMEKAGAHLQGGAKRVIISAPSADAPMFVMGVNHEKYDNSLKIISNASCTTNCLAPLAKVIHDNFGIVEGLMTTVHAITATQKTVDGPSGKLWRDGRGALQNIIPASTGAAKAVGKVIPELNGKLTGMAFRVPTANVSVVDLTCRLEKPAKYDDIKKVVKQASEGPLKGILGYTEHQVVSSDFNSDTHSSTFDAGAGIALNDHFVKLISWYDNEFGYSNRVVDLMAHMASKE

O=C(CSc1nnc(-c2ccc(Br)cc2)o1)Nc1cccc2ccccc12
IC50 [1]: > 111 µM (not active) | IC50 [2]: 14.3 µM (not active) | EC50 [3]: > 38 µM (not active) | EC50 [4]: > 150 µM (inconclusive)

Cc1n[nH]c(C)c1S(=O)(=O)N1CCCC(C(=O)Nc2ccc3c(c2)OCCO3)C1 (configuration not stated)
IC50 [5]: > 100 µM (not active)

O=C1C(Cl)=C(N2CCN(c3ccccc3Cl)CC2)C(=O)N1c1ccc(Cl)c(Cl)c1
IC50 (Bcl-2-related protein A1 [6]): > 100 µM (not active) | IC50 [7]: > 100 µM (not active) | IC50 (Bcl-2-related protein A1 [8]): > 100 µM (not active)

C[C@@H]1CN([C@H](C)CO)C(=O)c2cc(NC(=O)Nc3ccc(C(F)(F)F)cc3)ccc2O[C@H]1CN(C)C(=O)Nc1cccc2ccccc12
AC50 [9]: 1.43 µM (active) | AC50 [10]: 1.99 µM (active) | AC50 [11]: 2 µM (active) | AC50 [12]: 1.68 µM (active)

CCn1c(SCC(=O)c2ccccc2)nc2sc3c(c2c1=O)CCN(C)C3
EC50 [13]: < 0.1 µM (active) | EC50 (cells): 0.061 µM (active) | EC50 [14]: > 60 µM (not active)

CN(Cc1nc(-c2cccnc2)no1)S(=O)(=O)c1ccc(Br)cc1
IC50 [5]: > 100 µM (not active)

O=P(O)(CN1CCCCCC1)CN1CCCCCC1
IC50 (Protein Tat): > 100 µM (active)
